Read-outs that look alike come from different tables or passages of the source.
Assays:
mRCC patients [1] = assay: Tumor response to sunitinib (RECIST version 1.1), clinical benefit / primary resistance; format: in vivo, human
Experimental: (§1) Twelve patients in this study received a starting dose of 50 mg daily. Six patients started with 25 mg daily due to advanced age or patients' aversion to expected toxicities.
Patient characteristics were also collected including age, gender, ethnicity, body weight and height, and Eastern Cooperative Oncology Group (ECOG) performance status. Memorial Sloan-Kettering Cancer Center (MSKCC) prognostic score was calculated for each patient with available data. All the collected data were de-identified by a third party before being used in statistical analysis. The follow-up period ended at the end of April, 2014.
(§2) Genotype associations with toxicity events or responsive tumor were first analyzed using univariate logistic regression. Genotypes generating P<0.20 were further analyzed using multivariate logistic regression including patient age, gender, baseline ECOG status and starting dose as covariates. Progression-free survival and overall survival were estimated by means of Kaplan-Meier method, while the associations of genotypes and patient characteristics with PFS and OS were analyzed using two-tailed log rank test. The effects of genotypes on the progression-free survival and overall survival were then evaluated using multivariate Cox regression model by including genotypes and patient characteristics with P<0.05 in univariate analysis. […] In all analyses, missing data were kept missing except for baseline ECOG status, which was replaced with the median value. As this was designed as a validation study of previously observed correlations rather than an exploratory evaluation, multiple testing correction was not done.

patients = conditions: cited from earlier work; for Dose reductions: n = 96, Beuselinck et al., 2014
mRCC patients [2] = assay: Progression-free and overall survival on first-line sunitinib (Kaplan-Meier, Cox regression); format: in vivo, human; conditions: for Overall survival HR multivariate / Progression-free survival HR multivariate: starting dose as covariate
Experimental: as §1, §2

[3] = ABCB1 haplotype TTT/TTT vs Other
[4] = ABCG2 421 C/A AA genotype, n = 65, Kim et al., 2013
[5] = ABCB1 haplotype TTT/TTT (homozygous carriers)

## CCN(CC)CCNC(=O)c1c(C)[nH]c(/C=C2\C(=O)Nc3ccc(F)cc32)c1C [sunitinib]
mRCC patients [1]; ABCB1 2677 G/TA Other
  Clinical benefit prevalence: 55/79
mRCC patients [1]; ABCB1 2677 G/TA TT
  Clinical benefit prevalence: 4/11
mRCC patients [1]; ABCB1 2677 TT vs Other
  Clinical benefit OR multivariate: 0.1
  Clinical benefit OR univariate: 0.3
mRCC patients [1]; ABCB1 3435 C/T CC + CT
  Clinical benefit prevalence: 54/78
mRCC patients [1]; ABCB1 3435 C/T TT
  Clinical benefit prevalence: 5/12
mRCC patients [1]; ABCB1 3435 TT vs CC + CT
  Clinical benefit OR multivariate: 0.2
  Clinical benefit OR univariate: 0.3
mRCC patients [1]; ABCB1 haplotype Other
  Clinical benefit prevalence: 57/82
mRCC patients [1]; ABCB1 haplotype TTT/TTT
  Clinical benefit prevalence: 2/8
mRCC patients [1]; [3]
  Clinical benefit OR multivariate: 0.1
  Clinical benefit OR univariate: 0.2
mRCC patients [1]; Age
  Clinical benefit OR univariate: 1.0
mRCC patients [1]; Baseline ECOG 0
  Clinical benefit prevalence: 20/25
mRCC patients [1]; Baseline ECOG 1
  Clinical benefit prevalence: 31/49
mRCC patients [1]; Baseline ECOG 1 vs 0
  Clinical benefit OR univariate: 0.4
mRCC patients [1]; Baseline ECOG 2
  Clinical benefit prevalence: 5/11
mRCC patients [1]; Baseline ECOG 2 vs 0
  Clinical benefit OR univariate: 0.2
mRCC patients [1]; Baseline ECOG 3
  Clinical benefit prevalence: 3/5
mRCC patients [1]; Baseline ECOG 3 vs 0
  Clinical benefit OR univariate: 0.4
mRCC patients [1]; Female vs Male
  Clinical benefit OR univariate: 1.2
mRCC patients [1]; Gender Female
  Clinical benefit prevalence: 13/19
mRCC patients [1]; Gender Male
  Clinical benefit prevalence: 46/71
mRCC patients [1]; Starting dose 37.5 mg
  Clinical benefit prevalence: 49/75
mRCC patients [1]; Starting dose 50 mg
  Clinical benefit prevalence: 9/11
mRCC patients [1]; Starting dose 37.5 vs ≦37.5 mg
  Clinical benefit OR univariate: 5.7
mRCC patients [1]; Starting dose ≦37.5 mg
  Clinical benefit prevalence: 1/4
mRCC patients [1]; all patients (n = 90)
  Clinical benefit prevalence (cases with PR or SD as best response/total in group): 59/90
patients; ABCB1 1236 T/C TT genotype
  Dose reductions: Less dose
patients; ABCB1 2677G/TA TT or TA genotypes
  Dose reductions: Less dose
patients; ABCB1 TTT haplotype, n = 219, van Erp et al., 2009
  HFS (hand-foot syndrome): HFS increased
patients; [4]
  HFS (hand-foot syndrome): More
  Neutropenia: More
  Thrombocytopenia: More
patients; in vivo
  Any toxicity grade>2: increased with T
  Leucopenia: increased with T
mRCC patients [2]; ABCB1 1236 T/C CC + CT
  Median overall survival: 20 months
  Median progression-free survival: 11.7 months
mRCC patients [2]; ABCB1 1236 T/C TT
  Median overall survival: 10.4 months
  Median progression-free survival: 3.6 months
mRCC patients [2]; ABCB1 1236 TT vs CC + CT
  Overall survival HR univariate: 1.7
  Progression-free survival HR univariate: 1.7
  Overall survival HR multivariate: 1.7
  Progression-free survival HR multivariate: 1.7
mRCC patients [2]; ABCB1 2677 G/TA Other
  Median overall survival: 19.6 months
  Median progression-free survival: 8.4 months
mRCC patients [2]; ABCB1 2677 G/TA TT
  Median overall survival: 5.9 months
  Median progression-free survival: 2.7 months
mRCC patients [2]; ABCB1 2677 TT vs Other
  Overall survival HR univariate: 2.9
  Progression-free survival HR univariate: 2.3
  Overall survival HR multivariate: 2.0
  Progression-free survival HR multivariate: 1.5
mRCC patients [2]; ABCB1 3435 C/T CC + CT
  Median overall survival: 19.5 months
  Median progression-free survival: 8.4 months
mRCC patients [2]; ABCB1 3435 C/T TT
  Median overall survival: 7.2 months
  Median progression-free survival: 2.7 months
mRCC patients [2]; ABCB1 3435 TT vs CC + CT
  Overall survival HR univariate: 1.6
  Progression-free survival HR univariate: 1.7
  Overall survival HR multivariate: 1.7
  Progression-free survival HR multivariate: 1.7
mRCC patients [2]; ABCB1 haplotype Other
  Median overall survival: 19.6 months
  Median progression-free survival: 8.4 months
mRCC patients [2]; [5]
  Median overall survival: 4.6 months
  Median progression-free survival: 2.4 months
mRCC patients [2]; [3]
  Overall survival HR univariate: 3.9
  Progression-free survival HR univariate: 4.9
  Overall survival HR multivariate: 5.0
  Progression-free survival HR multivariate: 5.5
mRCC patients [2]; Age
  Overall survival HR univariate: 1.0
  Progression-free survival HR univariate: 1.0
mRCC patients [2]; Baseline ECOG 0
  Median overall survival: 32.9 months
  Median progression-free survival: 16.1 months
mRCC patients [2]; Baseline ECOG 1
  Median overall survival: 19.6 months
  Median progression-free survival: 6.9 months
mRCC patients [2]; Baseline ECOG 1 vs 0
  Overall survival HR univariate: 1.9
  Progression-free survival HR univariate: 2.2
mRCC patients [2]; Baseline ECOG 2
  Median overall survival: 5.7 months
  Median progression-free survival: 3.3 months
mRCC patients [2]; Baseline ECOG 2 vs 0
  Overall survival HR univariate: 3.0
  Progression-free survival HR univariate: 2.8
mRCC patients [2]; Baseline ECOG 3
  Median overall survival: 15.7 months
  Median progression-free survival: 12.9 months
mRCC patients [2]; Baseline ECOG 3 vs 0
  Overall survival HR univariate: 2.7
  Progression-free survival HR univariate: 2.8
mRCC patients [2]; Gender Female
  Median overall survival: 19.9 months
  Median progression-free survival: 10.0 months
mRCC patients [2]; Gender Male
  Median overall survival: 16.3 months
  Median progression-free survival: 8.1 months
mRCC patients [2]; MSKCC Good
  Median overall survival: 41.4 months
  Median progression-free survival: 12.6 months
mRCC patients [2]; MSKCC Intermediate
  Median overall survival: 19.6 months
  Median progression-free survival: 10.0 months
mRCC patients [2]; MSKCC Intermediate vs Good
  Overall survival HR univariate: 2.2
  Progression-free survival HR univariate: 1.3
mRCC patients [2]; MSKCC Poor
  Median overall survival: 14 months
  Median progression-free survival: 5.5 months
mRCC patients [2]; MSKCC Poor vs Good
  Overall survival HR univariate: 3.1
  Progression-free survival HR univariate: 2.3
mRCC patients [2]; Male vs Female
  Overall survival HR univariate: 1.1
  Progression-free survival HR univariate: 1.1
mRCC patients [2]; Starting dose 37.5 mg
  Median overall survival: 19.5 months
  Median progression-free survival: 8.3 months
mRCC patients [2]; Starting dose 50 mg
  Median overall survival: 47.4 months
  Median progression-free survival: 17.3 months
mRCC patients [2]; Starting dose 37.5 vs ≦37.5 mg
  Overall survival HR univariate: 0.2
mRCC patients [2]; Starting dose 50 vs ≦37.5 mg
  Overall survival HR univariate: 0.1
mRCC patients [2]; Starting dose ≦37.5 mg
  Median overall survival: 4.6 months
  Median progression-free survival: 1.8 months
mRCC patients [2]; all 81 first-line patients
  Median overall survival: 19.5 months
  Median progression-free survival: 8.1 months

— US20160251725A1, “METHOD FOR PREDICTING CLINICAL TOXICITY AND OUTCOME” (AGENCY FOR SCIENCE, TECHNOLOGY AND RESEARCH, priority 2013, published 2016)
